Assay results taken from patent US20240238423A9, “TETRAHYDROISOQUINOLINE HETEROBIFUNCTIONAL BCL-XL DEGRADERS” (Treeline Biosciences, Inc., priority 2022, published 2024).
Read-outs that look alike come from different tables or passages of the source.

Target: T1, Human BCL-XL protein (N-terminal HiBiT tagged BCL-XL in HT1080 cells) (Homo sapiens, UniProt Q07817)
T1 construct: expressed in transfected cells; host or cells: HT-1080 (ATCC CCL-121), stably transduced with lentivirus pLV-UBC-N-HiBiT-BCL-XL-PGK-puro and selected with puromycin
Test: HiBiT based degradation assay
Assay type: cell-based
Conditions: HT1080 cells expressing HiBiT-BCL-XL; for Ymin (6 h) / Ymin (24 h): BCL-XL degradation normalized with DMSO control; for DC50: BCL-XL degradation
Procedure, shortened: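 This HiBiT degradation assay measured loss of BCL-XL in HT1080 cells that stably express an N-terminal HiBiT-BCL-XL fusion delivered by lentivirus. Cells were added to compound-spotted 384-well plates, and luminescence was read on a PHERAstar FSX reader. Signal was expressed relative to DMSO controls, curves were fitted by four-parameter logistic regression, and for hook-shaped curves the Ymin point served as the bottom plateau when calculating EC50.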

T1 sequence (Q07817 whole entry): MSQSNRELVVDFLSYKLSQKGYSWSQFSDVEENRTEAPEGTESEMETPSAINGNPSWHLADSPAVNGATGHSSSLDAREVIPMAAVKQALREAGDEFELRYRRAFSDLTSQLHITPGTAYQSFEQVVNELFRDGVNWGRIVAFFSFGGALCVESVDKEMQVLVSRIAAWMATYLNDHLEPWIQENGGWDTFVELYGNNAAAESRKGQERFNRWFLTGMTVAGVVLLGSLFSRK

## Cc1c(OCCCN2C[C@H]3CC[C@@H](C2)N3CC(=O)Nc2ccc3c(C4CCC(=O)NC4=O)nn(C)c3c2)cccc1-c1ccc(N2CCc3cccc(C(=O)Nc4nc5ccccc5s4)c3C2)nc1C(=O)O (stereo partly drawn) [Compound 127, 6-(8-(benzo[d]thiazol-2-ylcarbamoyl)-3,4-dihydroisoquinolin-2(1H)-yl)-3-(3-(3-((1R,5S)-8-(2-((3-(2,6-dioxopiperidin-3-yl)-1-methyl-1H-indazol-6-yl)amino)-2-oxoethyl)-3,8-diazabicyclo[3.2.1]octan-3-yl)propoxy)-2-methylphenyl)picolinic acid]
6 h
  Ymin (6 h): B (50% ≤ Ymin < 70%)
24 h
  Ymin (24 h): A (Ymin < 50%)
6 h, read-out: EC50 (6 h)
  DC50: < 100 nM
24 h, read-out: EC50 (24 h)
  DC50: < 100 nM

## Cc1c(O[C@H]2CC[C@H](CCCCN3CCC(c4ccc5c(C6CCC(=O)NC6=O)nn(C)c5c4)CC3)CC2)cccc1-c1ccc(N2CCc3cccc(C(=O)Nc4nc5ccccc5s4)c3C2)nc1C(=O)O (stereo partly drawn) [Compound 299a, 6-(8-(benzo[d]thiazol-2-ylcarbamoyl)-3,4-dihydroisoquinolin-2(1H)-yl)-3-(3-(((1s,4r)-4-(4-(4-(3-(2,6-dioxopiperidin-3-yl)-1-methyl-1H-indazol-6-yl)piperidin-1-yl)butyl)cyclohexyl)oxy)-2-methylphenyl)picolinic acid]
24 h
  Ymin (24 h): A (Ymin < 50%)
24 h, read-out: EC50 (24 h)
  DC50: < 100 nM

## Cc1c(OCCCc2ccc(CC(=O)Nc3ccc4c(C5CCC(=O)NC5=O)nn(C)c4c3)cn2)cccc1-c1ccc(N2CCc3cccc(C(=O)Nc4nc5ccccc5s4)c3C2)nc1C(=O)O (stereo not drawn) [Compound 309, 6-[8-(1,3-benzothiazol-2-ylcarbamoyl)-3,4-dihydro-1H-isoquinolin-2-yl]-3-[3-[3-[5-[2-[[3-(2,6-dioxo-3-piperidyl)-1-methyl-indazol-6-yl]amino]-2-oxo-ethyl]-2-pyridyl]propoxy]-2-methyl-phenyl]pyridine-2-carboxylic acid]
24 h
  Ymin (24 h): B (50% ≤ Ymin < 70%)
24 h, read-out: EC50 (24 h)
  DC50: 100 to 1000 nM

## Cc1c(OCCC2CCN(CCN3CCC(c4ccc5c(C6CCC(=O)NC6=O)nn(C)c5c4)CC3)CC2)cccc1-c1ccc(N2CCc3cccc(C(=O)Nc4nc5ccccc5s4)c3C2)nc1C(=O)O (stereo not drawn) [Compound 248, 6-[8-(1,3-benzothiazol-2-ylcarbamoyl)-3,4-dihydro-1H-isoquinolin-2-yl]-3-[3-[2-[1-[2-[4-[3-(2,6-dioxo-3-piperidyl)-1-methyl-indazol-6-yl]-1-piperidyl]ethyl]-4-piperidyl]ethoxy]-2-methyl-phenyl]pyridine-2-carboxylic acid]
24 h
  Ymin (24 h): A (Ymin < 50%)
24 h, read-out: EC50 (24 h)
  DC50: < 100 nM

## Cc1c(OCCCC2CCN([C@@H](C)C(=O)Nc3cccc4c(C5CCC(=O)NC5=O)nn(C)c34)CC2)cccc1-c1ccc(N2CCc3cccc(C(=O)Nc4nc5ccccc5s4)c3C2)nc1C(=O)O (stereo partly drawn) [Compound 216a, 6-(8-(benzo[d]thiazol-2-ylcarbamoyl)-3,4-dihydroisoquinolin-2(1H)-yl)-3-(3-(3-(1-((2S)-1-((3-(2,6-dioxopiperidin-3-yl)-1-methyl-1H-indazol-7-yl)amino)-1-oxopropan-2-yl)piperidin-4-yl)propoxy)-2-methylphenyl)picolinic acid]
24 h
  Ymin (24 h): B (50% ≤ Ymin < 70%)
24 h, read-out: EC50 (24 h)
  DC50: < 100 nM

## Cc1c(-c2ccc(N3CCc4cccc(C(=O)Nc5nc6ccccc6s5)c4C3)nc2C(=O)NCCCCCCCCCCCC(=O)Nc2ccc3c(C4CCC(=O)NC4=O)nn(C)c3c2)cnn1CC12CC3CC(CC(C3)C1)C2 (stereo not drawn) [Compound 113, 2-(5-(1-((3r,5r,7r)-adamantan-1-ylmethyl)-5-methyl-1H-pyrazol-4-yl)-6-((12-((3-(2,6-dioxopiperidin-3-yl)-1-methyl-1H-indazol-6-yl)amino)-12-oxododecyl)carbamoyl)pyridin-2-yl)-N-(benzo[d]thiazol-2-yl)-1,2,3,4-tetrahydroisoquinoline-8-carboxamide]
6 h
  Ymin (6 h): B (50% ≤ Ymin < 70%)
6 h, read-out: EC50 (6 h)
  DC50: 100 to 1000 nM

## Cc1c(O[C@H]2CC[C@H](C[C@H](C)CN3CCN(c4ccc5c(C6CCC(=O)NC6=O)nn(C)c5c4)CC3)CC2)cccc1-c1ccc(N2CCc3cccc(C(=O)Nc4nc5ccccc5s4)c3C2)nc1C(=O)O (single isomer, unassigned) [Compound 282b, 6-(8-(benzo[d]thiazol-2-ylcarbamoyl)-3,4-dihydroisoquinolin-2(1H)-yl)-3-(3-(((1S,4r)-4-((2S*)-3-(4-(3-(2,6-dioxopiperidin-3-yl)-1-methyl-1H-indazol-6-yl)piperazin-1-yl)-2-methylpropyl)cyclohexyl)oxy)-2-methylphenyl)picolinic acid]
24 h
  Ymin (24 h): A (Ymin < 50%)
24 h, read-out: EC50 (24 h)
  DC50: < 100 nM

## Cc1c(OCCN2CCN(CC3CCN(c4cccc5c(C6CCC(=O)NC6=O)nn(C)c45)CC3)CC2)cccc1-c1ccc(N2CCc3cccc(C(=O)Nc4nc5ccccc5s4)c3C2)nc1C(=O)O (stereo not drawn) [Compound 228, 6-(8-(benzo[d]thiazol-2-ylcarbamoyl)-3,4-dihydroisoquinolin-2(1H)-yl)-3-(3-(2-(4-((1-(3-(2,6-dioxopiperidin-3-yl)-1-methyl-1H-indazol-7-yl)piperidin-4-yl)methyl)piperazin-1-yl)ethoxy)-2-methylphenyl)picolinic acid]
24 h
  Ymin (24 h): B (50% ≤ Ymin < 70%)
24 h, read-out: EC50 (24 h)
  DC50: < 100 nM

## Cc1c(O[C@H]2CC[C@@H](CCC(=O)N3CCN(c4cccc5c(C6CCC(=O)NC6=O)nn(C)c45)CC3)CC2)cccc1-c1ccc(N2CCc3cccc(C(=O)Nc4nc5ccccc5s4)c3C2)nc1C(=O)O (stereo partly drawn) [Compound 146b, 6-(8-(benzo[d]thiazol-2-ylcarbamoyl)-3,4-dihydroisoquinolin-2(1H)-yl)-3-(3-(((1s,4s)-4-(3-(4-(3-(2,6-dioxopiperidin-3-yl)-1-methyl-1H-indazol-7-yl)piperazin-1-yl)-3-oxopropyl)cyclohexyl)oxy)-2-methylphenyl)picolinic acid]
24 h
  Ymin (24 h): B (50% ≤ Ymin < 70%)
24 h, read-out: EC50 (24 h)
  DC50: 100 to 1000 nM

## Cc1c(OCC(F)(F)CN2C[C@@H](C)N(CC(=O)Nc3ccc4c(C5CCC(=O)NC5=O)nn(C)c4c3)[C@@H](C)C2)cccc1-c1ccc(N2CCc3cccc(C(=O)Nc4nc5ccccc5s4)c3C2)nc1C(=O)O (stereo partly drawn) [Compound 177a, 6-[8-(1,3-benzothiazol-2-ylcarbamoyl)-3,4-dihydro-1H-isoquinolin-2-yl]-3-[3-[3-[(3R,5S)-4-[2-[[3-(2,6-dioxo-3-piperidyl)-1-methyl-indazol-6-yl]amino]-2-oxo-ethyl]-3,5-dimethyl-piperazin-1-yl]-2,2-difluoro-propoxy]-2-methyl-phenyl]pyridine-2-carboxylic acid]
24 h
  Ymin (24 h): B (50% ≤ Ymin < 70%)
24 h, read-out: EC50 (24 h)
  DC50: 100 to 1000 nM

## Cc1c(O[C@H]2CC[C@H](CCCN3CCC(Oc4ccc5c(C6CCC(=O)NC6=O)nn(C)c5c4)CC3)CC2)cccc1-c1ccc(N2CCc3cccc(C(=O)Nc4nc5ccccc5s4)c3C2)nc1C(=O)O (stereo partly drawn) [Compound 337a, 6-(8-(benzo[d]thiazol-2-ylcarbamoyl)-3,4-dihydroisoquinolin-2(1H)-yl)-3-(3-(((1s,4r)-4-(3-(4-((3-(2,6-dioxopiperidin-3-yl)-1-methyl-1H-indazol-6-yl)oxy)piperidin-1-yl)propyl)cyclohexyl)oxy)-2-methylphenyl)picolinic acid]
24 h
  Ymin (24 h): A (Ymin < 50%)
24 h, read-out: EC50 (24 h)
  DC50: < 100 nM
